Experimental data published in US8338431B2, “Phosphodiesterase inhibitors” (Leo Pharma A/S, priority 2007, dated 2012).
pIC50: −log10 of the molar value. Where two headings read alike, the source gives them in different places.

Legend:
[1] = target: Human recombinant PDE4 (Genbank accession no NM—006203) (Homo sapiens, UniProt Q08499); experiment: PDE4 Assay (SPA, cleavage of cAMP); format: biochemical
Procedure: Human recombinant PDE4 (Genbank accession no NM_006203) was incubated for 1 hour, with the test compound at concentrations up to 10 μM, with cAMP (1×10^-5M), and with a low amount (0.021 MBq) of radioactively labelled cAMP. At the end of the incubation, the cleavage of the substrate was evaluated by the binding of the AMP product to SPA beads, which generate […] when bound to the radioactive tracer. The AMP product inhibited the binding of the radioactive tracer to the beads, and the luminescent signal was competed. The results were calculated as the molar concentrations resulting in 50% inhibition of the substrate cleavage compared to controls samples, and are expressed as IC50 (M).

[2] = test system: TNF-α release from human peripheral blood mononuclear cells (PBMC); experiment: TNF-α Release in LPS stimulated PBMC; format: cell-based; conditions: 30 minutes pre-incubation, stimulated 18 hours with lipopolysaccharide, TNF-α in supernatant by enzyme immunoassay
Procedure: Human peripheral blood mononuclear cells (PBMC) were isolated from buffy coats. The blood is mixed with saline at a ratio of 1:1, and the PBMC were isolated using Lymphoprep Tubes™ (Nycomed, Norway). The PBMC were suspended in RPMI1640 with 2% foetal calf serum (FCS), pen/strep and 2 mM L-glutamine at a concentration of […]. The cells were pre-incubated for 30 minutes with the test compounds in 96 well tissue culture plates and stimulated for 18 hours with lipopolysaccharide […] (Sigma). The level of TNF-α was measured in the culture supernatant by enzyme immunoassays using primary and secondary biotinylated antibodies from R&D systems. Results are expressed as IC50 values calculated from inhibition curves using as positive controls the secretion in LPS stimulated wells and as negative controls the secretion in unstimulated cells.

[3] = human recombinant PDE4, 1 hour incubation, cAMP 1×10^-5M, test compound up to 10 μM, read-out: IC50 (PDE4)

Sequence of Human recombinant PDE4 (Genbank accession no NM—006203) (Q08499 1-673 isoform Q08499-2): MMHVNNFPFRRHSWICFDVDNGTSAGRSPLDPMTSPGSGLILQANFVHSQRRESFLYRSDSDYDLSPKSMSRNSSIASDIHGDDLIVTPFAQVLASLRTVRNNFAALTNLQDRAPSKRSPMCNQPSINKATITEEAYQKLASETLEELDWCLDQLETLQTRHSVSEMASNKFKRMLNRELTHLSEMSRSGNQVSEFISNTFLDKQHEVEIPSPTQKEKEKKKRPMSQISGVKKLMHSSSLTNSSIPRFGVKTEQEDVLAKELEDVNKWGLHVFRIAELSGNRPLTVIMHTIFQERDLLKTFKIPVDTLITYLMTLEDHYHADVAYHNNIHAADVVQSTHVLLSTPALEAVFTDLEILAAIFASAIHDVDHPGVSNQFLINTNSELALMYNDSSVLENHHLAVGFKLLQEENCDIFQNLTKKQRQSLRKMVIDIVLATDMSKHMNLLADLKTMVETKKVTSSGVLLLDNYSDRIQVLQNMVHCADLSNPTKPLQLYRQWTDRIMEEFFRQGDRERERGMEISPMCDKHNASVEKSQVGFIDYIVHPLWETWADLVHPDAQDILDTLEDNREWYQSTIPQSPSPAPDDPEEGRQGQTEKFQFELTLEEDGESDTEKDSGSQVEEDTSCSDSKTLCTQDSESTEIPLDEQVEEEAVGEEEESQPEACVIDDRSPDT

| SMILES | pIC50 [1, 3] | pIC50 [2] | pIC50 [1] |
| --- | --- | --- | --- |
| COc1ccc(C(=O)Cc2ccncc2)c2c1OC1(CCSCC1)O2 [Compound 117, 2-(-pyridin-4-yl-)-1-(7-methoxy-2′,3′,5′,6′-tetrahydro-spiro[1,3-benzo-dioxole-2,4′-(4H)-thiopyran]-4-yl)ethanone] | 6.68 | 6.54 |  |
| COc1ccc(C(=O)Cc2c(Cl)cncc2Cl)c2c1OC1(CC[S+]([O-])CC1)O2 (stereo not drawn) [Compound 111, 2-(3,5-Dichloropyridine-4-yl)-1-(7-methoxy-2′,3′,5′,6′-tetrahydro-spiro[1,3-benzodioxole-2,4′-(4H)-thiopyran 1′-oxide]-4-yl)ethanone] | 7.74 | 7.72 |  |
| COC(=O)N1CCC2(CC1)Oc1c(OC)ccc(C(=O)Cc3c(Cl)cncc3Cl)c1O2 [Compound 106, 2-(3,5-Dichloropyridine-4-yl)-1-(7-methoxy-1′-[methoxycarbonyl]-spiro[1,3-benzodioxole-2,4′-piperidine]-4-yl)ethanone] |  | 6.80 | 6.90 |
| COc1ccc(C(=O)Cc2c(Cl)cncc2Cl)c2c1OC1(CCSC1)O2 (stereo not drawn) [Compound 104, 2-(3,5-Dichloropyridine-4-yl)-1-(7-methoxy-4′,5′-dihydro-spiro[1,3-benzo-dioxole-2,3′-(2H)-thiophen]-4-yl)ethanone] | 8.00 | 7.36 |  |
| COc1ccc(C(=O)Cc2c(Cl)c[n+]([O-])cc2Cl)c2c1OCC1(COCOC1)CO2 [Compound 131, 2-(3,5-Dichloro-1-oxido-pyridine-4-yl)-1-{9-methoxy-spiro[2H-1,5-benzodioxepin-3(4H),5′-[1,3]dioxane]-6-yl}ethanone] | 7.37 | 7.80 |  |
| COc1ccc(C(=O)Cc2ccccc2Cl)c2c1OC1(CCSCC1)O2 [Compound 120, 2-(2-chloro-phenyl)-1-(7-methoxy-2′,3′,5′,6′-tetrahydro-spiro[1,3-benzo-dioxole-2,4′-(4H)-thiopyran]-4-yl)ethanone] | 6.51 | 5.90 |  |
| COc1ccc(C(=O)Cc2c(Cl)cncc2Cl)c2c1OC1(CCNCC1)O2 [Compound 105, 2-(3,5-Dichloropyridine-4-yl)-1-(7-methoxy-spiro[1,3-benzodioxole-2,4′-piperidine]-4-yl)ethanone] |  | 6.10 | 6.51 |
| COc1ccc(C(=O)Cc2c(Cl)cncc2Cl)c2c1OCC1(CO2)CS(=O)(=O)C1 [Compound 124, 2-(3,5-Dichloropyridin-4-yl)-1-{9-methoxy-spiro[2H-1,5-benzodioxepin-3(4H),3′-thietane-1′,1′-dioxide]-6-yl}ethanone] | 6.98 | 6.87 |  |
| COc1ccc(C(=O)Cc2c(Cl)cccc2Cl)c2c1OC1(CCSCC1)O2 [Compound 119, 2-(2,6-Dichloro-phenyl)-1-(7-methoxy-2′,3′,5′,6′-tetrahydro-spiro[1,3-benzo-dioxole-2,4′-(4H)-thiopyran]-4-yl)ethanone] | 7.15 | 6.29 |  |
| COc1ccc(C(=O)Cc2c(Cl)cncc2Cl)c2c1OC1(CCOCC1)O2 [Compound 101, 2-(3,5-Dichloropyridine-4-yl)-1-(7-methoxy-2′,3′,5′,6′-tetrahydro-spiro[1,3-benzodioxole-2,4′-(4H)-pyran]-4-yl)ethanone] | 7.59 | 7.55 |  |
| COc1ccc(C(=O)Cc2c(Cl)c[n+]([O-])cc2Cl)c2c1OCC1(CCOCC1)CO2 [Compound 128, 2-(3,5-Dichloro-1-oxido-pyridin-4-yl)-1-{9-methoxy-spiro[2H-1,5-benzodioxepin-3(4H),4′-tetrahydropyran]-6-yl}ethanone] | 7.96 | 8.05 |  |
| COc1ccc(C(=O)Cc2c(Cl)cncc2Cl)c2c1OCC1(COCOC1)CO2 [Compound 130, 2-(3,5-Dichloropyridin-4-yl)-1-{9-methoxy-spiro[2H-1,5-benzodioxepin-3(4H),5′-[1,3]dioxane]-6-yl}ethanone] | 7.40 | 7.30 |  |
